Reference: patent US20090209620A1, “Direct Reversal Of The Suppressive Function Of CD4+Regulatory T Cells Via Toll-Like Receptor 8 Signaling” (priority 2005, published 2009)
In the oligonucleotide strings, read from the 5' end, every base follows the letter of its sugar. An asterisk marks phosphorothioate; unmarked linkages are phosphodiester. Other units and linkages are bracketed, terminal groups are in braces. A string of capitals states the bases alone. d = 2'-deoxy (DNA)

Legend:
[1] = test system: CD4+ Treg cells (Treg102, Treg164); assay: Proliferation assay without DCs: Treg suppression of naive CD4+ T cell proliferation, anti-CD3-coated plates; assay type: cell-based, human; details: absence of DCs; for reversal of Treg cell-mediated suppression of naive CD4+ T cell proliferation: anti-CD3-coated plates, oligonucleotides 3 ug/ml in medium
From the text: (§1) Establishing Treg cell lines and purifying natural CD4^+ CD25^+ Treg cells CD4^+ Treg clones were established from CD4^+ tumor-infiltrating lymphocytes (TIL102 and TIL164) and maintained in RPMI 1640 medium containing 10% human AB serum and recombinant IL-2 (300 IU/ml) using methods well known in the art (See, e.g., H. Y. Wang et al., Immunity 20, 107-118 (2004)). Treg clones derived from TIL102 or TIL164 cells were pooled and designated Treg102 or Treg164. Naturally occurring CD4^+ CD25^+ Treg cells were obtained by sorting CD4^+ T cell populations from fresh PBMCs after staining with anti-CD4 and anti-CD25 antibodies. To obtain optimal expansion, the OKT3 expansion method was performed using methods well known in the art (See, e.g., H. Y. Wang et al., Immunity 20, 107-118 (2004)). T cell clones were maintained at a low IL-2 concentration (300 IU/ml). Melanoma cell lines and EBV-transformed B-cell lines used in this study were cultured in RPMI 1640 medium containing 10% FCS. Human embryonic kidney (HEK) 293 and Epstein-Barr virus (EBV)-transformed B cell lines were maintained in RPMI 1640 with 10% fetal calf serum (FCS).
B. Proliferation assay without DCs: 1×10^5 näive CD4 T cells were cultured with regulatory T cells at different ratios (1: 0.2, 1:0.1 and 1:0.05) in anti-CD3 mAb-coated (2 ug/ml) 96-well plates in the presence or absence of the following TLR ligands or cytokines: CpG-A (3 ug/ml), CpG-B (3 ug/ml), LPS (100 ng/ml), TNF.-α (20 ng/ml), IFN-α (100 ng/ml), or IL-6 (100 ng/ml). After 56 h of culture, [3H]thymidine was added at a final concentration of 1 uCi/well, followed by an additional 16 h of culture. The incorporation of [^3H]thymidine was measured with a liquid scintillation counter.
Näive CD4^+ T cell proliferation experiments were performed similar to those in FIG. 1A, but in the absence of DCs. […] The reversal effect of CpG-A (SEQ ID NO: 1) contrasts with the failure of CpG-B (SEQ ID NO: 2), LPS, TNF-α, IL-6 or IFN-α to block the suppressive activity of CD4^+ Treg cells against naive CD4^+ T cells (FIG. 1B).
To further define the CpG-A (SEQ ID NO: 1) sequences responsible for the observed reversal effect, CpG-NG (SEQ ID NO: 5) and Poly-G10 (SEQ ID NO: 6), were tested for their ability to reverse the suppressive function of Treg cells. Naive CD4^+ T cells were mixed with CD4^+ Treg cells in anti-CD3 antibody-coated 96-wells with 200 μl of medium containing CpG-NG (SEQ ID NO: 5), CpG-A (SEQ ID NO: 1) or Poly-G10 (SEQ ID NO: 6). The proliferation assay was conducted as described in FIG. 1. […] For the experiments shown in FIG. 2B, naive CD4^+ T cells were mixed with CD4^+ Treg cells in anti-CD3 antibody-coated 96-wells with 200 μl of medium containing Poly-A10 (SEQ ID NO: 7), Poly-T10 (SEQ ID NO: 9) or Poly-C10 (SEQ ID NO: 8), while the Poly-G10 (SEQ ID NO: 6) oligonucleotides served as a positive control.
A series of oligonucleotides with decreasing numbers of guanosine nucleosides was constructed to determine the minimal number required for the reversal effect. For the experiments in FIG. 2C, CD4^+ T cells were mixed with CD4^+ Treg cells in anti-CD3 antibody-coated 96-wells containing medium with protected phosphorothioate linked guanosine nucleoside containing oligonucleotides of various lengths, while the unprotected five guanosines (SEQ ID NO: 10) served as a control.

[2] = test system: CD4+ Treg cells (Treg102, Treg164); assay: Proliferation assay with dendritic cells: Treg suppression of naive CD4+ T cell proliferation ([3H]thymidine); assay type: cell-based, human; details: with DCs and soluble anti-CD3; CpG-A 3 ug/ml
From the text: as §1
A. Proliferation assay with Dendritic Cells (DCs): Näive CD4^+ T cells were purified from PBMCs using microbeads (Miltenvi Biotec). DCs were generated from PBMC-derived monocytes in the presence of IL-4 (500 ng/ml) and GM-CSF (800 ng/ml) for 7 days. 1×105 näive CD4^+ T cells were cultured with regulatory T cells at different ratios (1: 0.2, 1:0.1 and 1:0.05) in 200 ul of medium containing 2×104 of DCs and anti-CD3 antibody (100 ng/ml) plus one of the following TLR ligands or cytokines: CpG-A (3 ug/ml), CpG-B (3 ug/ml), LPS (100 ng/ml), TNF.-α (20 ng/ml), IFN-α (100 ng/ml), or IL-6 (100 ng/ml). After 56 h of culture, [3H]thymidine was added at a final concentration of 1 uCi/well, followed by an additional 16 h. of culture. The incorporation of [^3H]thymidine was measured with a liquid scintillation counter, using methods well known in the art (See, e.g., M. K. Levings et al., J. Exp. Med. 196, 1335-46 (2002)). All experiments were performed in triplicate.
Two CD4^+ Treg cell lines, designated Treg102 and Treg164, were generated with a panel of Treg cell clones derived from TIL102 and TIL164 cells. […] A functional proliferation assay was employed to examine whether CpG (a TLR9 ligand), LPS (a TLR4 ligand) or the cytokines IL-6 or IFN-α could regulate the suppressive activity of antigen specific human CD4^+ Treg cells in the presence of DCs. […]

Row | Substance | effect on proliferation of naive CD4+ T cells or Treg cells alone [1] | reversal of Treg cell-mediated suppression of naive CD4+ T cell proliferation [1] | proliferation of naive CD4+ T cells restored, % of normal levels [2]
1 | G* GGGGACGATCGTCG* G*G*G*G*G [CpG-A] | lacked any effect | restored the proliferation of naive CD4^+ T cells to near normal levels | 50-80%
2 | Poly-G10: guanosine oligonucleotide with protected phosphorothioate backbone (DNA dG*dG*dG*dG*dG*dG*dG*dG*dG*dG) | – | retained or even enhanced | –
